Laboratory results published in patent publication US6482824B1, “Use of n-substituted (3,6-dihydro)-2h-1,2-oxazine derivatives as selective mglur1 antagonists” (Eli Lilly and Company, priority 1998, dated 2002).

Assay: ability of test compounds to treat migraine (as described in U.S. Pat. No. 5,817,671, U.S. Pat. No. 5,792,763 and J. Neurosci. Methods 1998, 81, 19-24)
Settings: in vivo

CCOc1ccc(C2ON(S(=O)(=O)c3ccc(C(=O)NC)cc3)C(C)C=C2C)cc1 (stereo not shown) [Example 5, 3,6-Dihydro-3,5-dimethyl-6-(4-ethoxyphenyl)-2-(4-methylcarbamoylbenzenesulphonyl)-2H-1,2-oxazine]
effectiveness in treatment of migraine: particularly effective
